Laboratory results reported in US20240199587A1, “HETEROCYCLIC COMPOUNDS” (Hoffmann-La Roche Inc., priority 2021, published 2024).

Target: T1, MAGL (Homo sapiens, UniProt Q99685)
T1 sequence (Q99685 1-303): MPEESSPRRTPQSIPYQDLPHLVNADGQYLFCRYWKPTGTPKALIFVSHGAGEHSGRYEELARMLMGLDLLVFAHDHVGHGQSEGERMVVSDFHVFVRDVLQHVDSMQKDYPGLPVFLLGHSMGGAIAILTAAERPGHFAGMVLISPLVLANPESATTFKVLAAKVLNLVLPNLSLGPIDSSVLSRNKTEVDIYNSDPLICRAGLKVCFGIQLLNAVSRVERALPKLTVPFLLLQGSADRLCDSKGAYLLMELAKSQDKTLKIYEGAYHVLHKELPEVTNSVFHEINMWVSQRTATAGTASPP
Experiment: 2-AG assay (MAGL inhibitory activity, hydrolysis of 2-arachidonoylglycerol to arachidonic acid followed by mass spectrometry)
Assay type: biochemical
Conditions: 8 μM 2-arachidonoylglycerol, 15 min pre-incubation, 30 min incubation at RT, RapidFire MS readout
Procedure, shortened: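 Human MAGL ([…] final) pre-incubated 15 min at RT with compound in 50 mM TRIS, 1 mM EDTA, 0.01% Tween-20, 2.5% DMSO; 8 μM 2-AG then added for 30 min at RT. Acetonitrile quench with d8-arachidonic acid; arachidonic acid measured by RapidFire SPE–MS/MS, activity from arachidonic acid/d8 ratio.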

SMILES | IC50 [nM]
CS(=O)(=O)c1cc(C(F)(F)F)ccc1C1CC2(C1)CN(C(=O)N1CC3(CC(Cc4ccc(F)cc4F)C3)C1)C2 [Example 347, [6-[(2,4-difluorophenyl)methyl]-2-azaspiro[3.3]heptan-2-yl]-[6-[2-methylsulfonyl-4-(trifluoromethyl)phenyl]-2-azaspiro[3.3]heptan-2-yl]methanone] | 833
CC(C)(C)c1nc(-c2ccc(C(=O)N3CC4(CC(n5nccc5C(F)(F)F)C4)C3)cc2)no1 [Example 16, [4-(5-tert-buty1-1,2,4-oxadiazol-3-yl)phenyl]-[6-[5-(trifluoromethyl)pyrazol-1-yl]-2-azaspiro[3.3]heptan-2-yl]methanone] | 2810
CC(C)(C)c1nc(-c2ccc(C(=O)N3CC4(CC(n5ncc6c5CCOC6)C4)C3)cc2)no1 [Example 18, [4-(5-tert-butyl-1,2,4-oxadiazol-3-yl)phenyl]-[6-(6,7-dihydro-4H-pyrano[4,3-c]pyrazol-1-yl)-2-azaspiro[3.3]heptan-2-yl]methanone] | 3730
COc1cc(F)ccc1O[C@H]1C[C@@H]2CN(C(=O)N3CC4(CC(n5cnc(C6CC6)n5)C4)C3)C[C@@H]2C1 [Example 122, [6-(3-cyclopropyl-1,2,4-triazol-1-yl)-2-azaspiro[3.3]heptan-2-yl]-[rac-(3aS,6aR)-5-(4-fluoro-2-methoxy-phenoxy)-3,3a,4,5,6,6a-hexahydro-1H-cyclopenta[c]pyrrol-2-yl]methanone] | 7.3
Cc1cc(C(=O)N2CC3(CC(n4ccc(C5CC5)n4)C3)C2)cnc1OC(C)(C)C(F)(F)F [Example 152, [6-(3-cyclopropylpyrazol-1-yl)-2-azaspiro[3.3]heptan-2-yl]-[5-methyl-6-(2,2,2-trifluoro-1,1-dimethyl-ethoxy)-3-pyridyl]methanone] | 312
CC(C)(C)c1nc(-c2ccc(C(=O)N3CC4(CC(n5nccc5C5CC5)C4)C3)cc2)no1 [Example 180, [4-(5-tert-butyl-1,2,4-oxadiazol-3-yl)phenyl]-[6-(5-cyclopropylpyrazol-1-yl)-2-azaspiro[3.3]heptan-2-yl]methanone] | 4690
O=C(N1CC2(CC(OCC(F)(F)F)C2)C1)N1CC2(CC(n3cnc(C4CC4)n3)C2)C1 [Example 65, [6-(3-cyclopropyl-1,2,4-triazol-1-yl)-2-azaspiro[3.3]heptan-2-yl]-[6-(2,2,2-trifluoroethoxy)-2-azaspiro[3.3]heptan-2-yl]methanone] | 83.2
O=C(N1CC2(CC(n3cnc(C4CC4)n3)C2)C1)N1CC2(C1)CN(S(=O)(=O)N1CCCC1)C2 [Example 284, [6-(3-cyclopropyl-1,2,4-triazol-1-yl)-2-azaspiro[3.3]heptan-2-yl]-(2-pyrrolidin-1-ylsulfonyl-2,6-diazaspiro[3.3]heptan-6-yl)methanone] | 49.9
Cc1cc(C(=O)N2CC3(CC(n4ccc(C5CC5)n4)C3)C2)cnc1OCC1(C(F)(F)F)CC1 [Example 151, [6-(3-cyclopropylpyrazol-1-yl)-2-azaspiro[3.3]heptan-2-yl]-[5-methyl-6-[[1-(trifluoromethyl)cyclopropyl]methoxy]-3-pyridyl]methanone] | 67.1
CC(Oc1cnn(C2CN(C(=O)N3CC4(CC(n5cnc(C6CC6)n5)C4)C3)C2)c1)C(F)(F)F (centres unmarked) [Example 249, [6-(3-cyclopropyl-1,2,4-triazol-1-yl)-2-azaspiro[3.3]heptan-2-yl]-[3-[4-(2,2,2-trifluoro-1-methyl-ethoxy)pyrazol-1-yl]azetidin-1-yl]methanone] | 14.4
O=C(N1CC2(CC(Cc3ccc(C(F)(F)F)nc3)C2)C1)N1CC2(CC(c3ccc(C(F)(F)F)nc3)C2)C1 [Example 524, [6-[6-(trifluoromethyl)-3-pyridyl]-2-azaspiro[3.3]heptan-2-yl]-[6-[[6-(trifluoromethyl)-3-pyridyl]methyl]-2-azaspiro[3.3]heptan-2-yl]methanone] | 74.3

These reach a lower IC50. Values come first.

IC50 [nM] | SMILES
2.4 | N#Cc1cc(C2CN(C(=O)N3CC4(CC(n5cnc(C6CC6)n5)C4)C3)C2)ccc1OC(F)(F)F [Example 39, 5-[1-[6-(3-cyclopropyl-1,2,4-triazol-1-yl)-2-azaspiro[3.3]heptane-2-carbonyl]azetidin-3-yl]-2-(trifluoromethoxy) benzonitrile]
1.7 | O=C(N1C[C@H]2C[C@H](Oc3cc(C(F)(F)F)c(F)cc3F)C[C@H]2C1)N1CC2(CC(n3cnc(C4CC4)n3)C2)C1 [Example 132, [6-(3-cyclopropyl-1,2,4-triazol-1-yl)-2-azaspiro[3.3]heptan-2-yl]-[rac-(3aS,6aR)-5-[2,4-difluoro-5-(trifluoromethyl)phenoxy]-3,3a,4,5,6,6a-hexahydro-1H-cyclopenta[c]pyrrol-2-yl]methanone]
3.91 | O=C(N1CC2(CC(Cc3ncc(F)cc3F)C2)C1)N1CC2(CC(n3cnc(C4(O)CC4)n3)C2)C1 [Example 402, [6-[(3,5-difluoro-2-pyridyl)methyl]-2-azaspiro[3.3]heptan-2-yl]-[6-[3-(1-hydroxycyclopropyl)-1,2,4-triazol-1-yl]-2-azaspiro[3.3]heptan-2-yl]methanone]
1.88 | CS(=N)(=O)c1cccc(CC2CC3(C2)CN(C(=O)N2CC4(CC(n5cnc(C6CC6)n5)C4)C2)C3)c1 (single isomer, unassigned) [Example 440, [6-(3-cyclopropyl-1,2,4-triazol-1-yl)-2-azaspiro[3.3]heptan-2-yl]-[6-[[3-(methylsulfonimidoyl)phenyl]methyl]-2-azaspiro[3.3]heptan-2-yl]methanone]
0.9 | O=C(N1CC2(CC(Oc3ccc(F)c(F)c3)C2)C1)N1CC2(CC(n3cnc(C4CC4)n3)C2)C1 [Example 68, [6-(3-cyclopropyl-1,2,4-triazol-1-yl)-2-azaspiro[3.3]heptan-2-yl]-[6-(3,4-difluorophenoxy)-2-azaspiro[3.3]heptan-2-yl]methanone]
0.2 | N#Cc1c(OC2CN(C(=O)N3CC4(CC(n5cnc(C6CC6)n5)C4)C3)C2)cccc1C1CC1 [Example 191, 2-cyclopropyl-6-[1-[6-(3-cyclopropyl-1,2,4-triazol-1-yl)-2-azaspiro[3.3]heptane-2-carbonyl]azetidin-3-yl]oxy-benzonitrile]
1.62 | CS(=O)(=O)c1cc(Cl)ccc1-c1ccc(C2CN(C(=O)N3CC4(CC(c5cnc(C(F)(F)F)nc5)C4)C3)C2)cc1 [Example 344, [3-[4-(4-chloro-2-methylsulfonyl-phenyl)phenyl]azetidin-1-yl]-[6-[2-(trifluoromethyl)pyrimidin-5-yl]-2-azaspiro[3.3]heptan-2-yl]methanone]
1.1 | CC(C)(C)Cc1nc(-c2ccc(C(=O)N3CC4(CC(n5cnc(C6CC6)n5)C4)C3)cc2)no1 [Example 88, [6-(3-cyclopropyl-1,2,4-triazol-1-yl)-2-azaspiro[3.3]heptan-2-yl]−[4-[5-(2,2-dimethylpropyl)-1,2,4-oxadiazol-3-yl]phenyl]methanone]
0.4 | O=C(N1CC(c2ccc(OC(F)(F)F)c(F)c2)C1)N1CC2(CC(n3cnc(C4CC4)n3)C2)C1 [Example 36, [6-(3-cyclopropyl-1,2,4-triazol-1-yl)-2-azaspiro[3.3]heptan-2-yl]-[3-[3-fluoro-4-(trifluoromethoxy)phenyl]azetidin-1-yl]methanone]
1.57 | N#Cc1ccc(CC2CC3(C2)CN(C(=O)N2CC4(CC(n5cnc(C6(O)CC6)n5)C4)C2)C3)cc1C(F)(F)F [Example 368, 4-[[2-[6-[3-(1-hydroxycyclopropyl)-1,2,4-triazol-1-yl]-2-azaspiro[3.3]heptane-2-carbonyl]-2-azaspiro[3.3]heptan-6-yl]methyl]-2-(trifluoromethyl) benzonitrile]
1 | CS(=O)(=O)c1cc(CC2CC3(C2)CN(C(=O)N2CC4(CC(n5cnc(C6(O)CC6)n5)C4)C2)C3)cc(C(F)(F)F)c1 [Example 359, [6-[3-(1-hydroxycyclopropyl)-1,2,4-triazol-1-yl]-2-azaspiro[3.3]heptan-2-yl]-[6-[[3-methylsulfonyl-5-(trifluoromethyl)phenyl]methyl]-2-azaspiro[3.3]heptan-2-yl]methanone]
4.2 | O=C(N1CC2(CC(n3cnc(C4CC4)n3)C2)C1)N1CC2(C1)CN(S(=O)(=O)c1ccc(F)cc1Cl)C2 [Example 228, [2-(2-chloro-4-fluoro-phenyl)sulfonyl-2,6-diazaspiro[3.3]heptan-6-yl]-[6-(3-cyclopropyl-1,2,4-triazol-1-yl)-2-azaspiro[3.3]heptan-2-yl]methanone]
0.2 | O=C(N1CC(Oc2ccc(C3CC3)cc2F)C1)N1CC2(CC(n3cnc(C4CC4)n3)C2)C1 [Example 190, [3-(4-cyclopropyl-2-fluoro-phenoxy)azetidin-1-yl]-[6-(3-cyclopropyl-1,2,4-triazol-1-yl)-2-azaspiro[3.3]heptan-2-yl]methanone]
6.5 | CC(C)(C)c1nc(C2CN(C(=O)N3CC4(CC(n5cnc(C6CC6)n5)C4)C3)C2)cs1 [Example 87, [3-(2-tert-butylthiazol-4-yl)azetidin-1-yl]-[6-(3-cyclopropyl-1,2,4-triazol-1-yl)-2-azaspiro[3.3]heptan-2-yl]methanone]
4.3 | N#Cc1ccc(OC2CC3(C2)CN(C(=O)N2CC4(CC(n5cnc(C6CC6)n5)C4)C2)C3)c(F)c1 [Example 111, 4-[[2-[6-(3-cyclopropyl-1,2,4-triazol-1-yl)-2-azaspiro[3.3]heptane-2-carbonyl]-2-azaspiro[3.3]heptan-6-yl]oxy]-3-fluoro-benzonitrile]
